The text below walks through data of patent US11590128B2, “Combination therapy of a type II anti-CD20 antibody with a selective BCL-2 inhibitor” (GENENTECH, INC., priority 2012, dated 2023).

In experiment [1] the test system is DLBCL SU-DHL-4 xenograft. Put plainly: DLBCL SU-DHL-4 xenograft model, combination followed by single-agent GDC-0199, Example 4. In kind it is in vivo, mice. Particulars: GDC-0199 orally for 21 days, GA101 1 mg/kg QW for 3 weeks; alone or in combination. The method, then:
At day 22 tumor bearing mice in the combination cohort continued to be dosed with GDC-0199 alone at 100 mg/kg for an additional 24 days.
As explained above, a cohort of tumor bearing mice was also dosed with GDC-0199 alone for an additional 24 days after combination treatment ended on day 21 (QD×45). Under the x-axis, treatment periods are denoted by solid black lines ( ? ) for the combination cohorts while the continued single agent GDC-0199 treatment is denoted by dashed black line ( ? ).

In experiment [2] the test system is SU.DHL-4 diffuse large B-cell lymphoma xenograft. The experiment is described as follows: NHL xenograft model of aggressive lymphoma (DLBCL SU.DHL-4), Example 1. In kind it is in vivo, mice. The text has this:
The study used a non-Hodgkin's lymphoma (NHL) xenograft model of aggressive lymphoma, the diffuse large B-cell lymphoma (DLBCL) derived cell line SU.DHL-4.
In FIG. 1, the dose of GDC-0199 is expressed as free base equivalents in mg/kg of body weight. Results are expressed as the fitted tumor volume as determined by linear mixed effects modeling for each treatment group vs. time in days, where Day 0 is the first day of treatment.

The subject of experiment [3] is human Z138 mantle cell lymphoma cells. Put plainly: Tumor growth inhibition study in vivo, Z138 mantle cell lymphoma xenograft, Example 3. The arrangement: species or system SCID beige mice. The settings on record: day 35 after tumor cell inoculation; antibodies 1 mg/kg i.p. once weekly x3; GDC-0199 100 mg/kg p.o. once daily for 17 days. How it is done: Animals. […] Continuous health monitoring was carried out on regular basis.
Monitoring. Animals were controlled daily for clinical symptoms and detection of adverse effects.
Treatment of animals. […] The corresponding vehicle was administered on the same days.

`CC1(C)CCC(CN2CCN(c3ccc(C(=O)NS(=O)(=O)c4ccc(NCC5CCOCC5)c([N+](=O)[O-])c4)c(Oc4cnc5[nH]ccc5c4)c3)CC2)=C(c2ccc(Cl)cc2)C1` [GDC-0199, 2-(1H-pyrrolo[2,3-b]pyridin-5-yloxy)-4-(4-((2-(4-chlorophenyl)-4,4-dimethylcyclohex-1-enyl)methyl)piperazin-1-yl)-N-(3-nitro-4-(((tetrahydro-2H-pyran-4-yl)methyl)amino)phenylsulfonyl)benzamide]: the figures for the “tumor growth inhibition (TGI)” value in experiment [1], in experiment [2] (after three weeks of therapy (treatment ended day 21)) and in experiment [2] (at day 31 (10 days after dosing ended)) were 24%, 80% and 25%, respectively. For the same compound, in experiment [2] (obinutuzumab 1 mg/kg IV once a week for 3 weeks, GDC-0199 100 mg/kg QD for 21 days, alone or combined), the “antitumor outcome (in words)” value is given as “stasis followed by tumor growth delay”. The “tumor growth inhibition compared to the control group” value in experiment [3] was 59%.
As to rituximab: type I anti-CD20 antibody, the “tumor growth inhibition compared to the control group” value in experiment [3] is 32%.
